Reference: PMC8782923, “A Klotho-derived peptide protects against kidney fibrosis by targeting TGF-β signaling” (Nature Communications, 2022)
Values joined by “and” are separate entries in the source; they are usually repeats but may differ in a detail not shown here. Equal entries are not always repeated.

Assays:
[1] = system: ERK1/2, JNK and p38 phosphorylation in NRK-49F cells; assay: TGF-β1-induced MAPK (ERK1/2, JNK, p38) phosphorylation in NRK-49F cells (Western blot); type: cell-based, rat; settings: KP1 10 µg/ml (3 μM) or ITD-1 3 μM 1 h, TGF-β1 2 ng/ml 45 min, individual values, n = 3, P <0.001, <0.001 and <0.001, Fig. 3n
Procedure: (§1) Normal rat kidney interstitial fibroblasts (NRK-49F) and human proximal tubular epithelial cells (HKC-8) were cultured at 37 °C. NRK-49F cells were serum-starved for 24 h and were pretreated with KP1 (10 µg/ml, 3 µM) for 1 h prior to incubation with TGF-β1 (#240-B; R&D Systems) at 2 ng/ml. Cells were collected at 45 min or 24 h after TGF-β1 treatment, respectively. Whole-cell lysates were prepared and subjected to Western blot analyses. For some experiments, cells were transiently transfected with expression vector human secreted Klotho (sKlotho) that only contains KL1 domain[48], by using Lipofectamine 2000 reagent (Invitrogen, Grand Island, NY) prior to treatment with TGF-β1.
(§2) Western blot analysis was performed as previously described. […] Image J (v1.8.0) was used to quantify Western blot results.

UUO mice = assay: KP1 versus ITD-1 in UUO mice: renal TGF-β signaling and fibrosis proteins (Western blot); type: in vivo, mouse; parameters: renal p-Smad2 (Western blot) / renal p-Smad3 (Western blot) / renal p-p38 (Western blot) / renal p-JNK (Western blot) / renal collagen I (Western blot) / renal fibronectin (Western blot) / renal α-SMA (Western blot): unit not given here; settings: KP1 1 mg/kg (0.31 μM/kg) or ITD-1 0.31 μM/kg, individual animals
Procedure: (§3) Male BALB/c mice weighing 20–22 g were purchased from Beijing Vital River Laboratory Animal Technology Co. and housed in a standard environment which was characterized by 12 h light/dark cycle, 22–25 °C, and 40–60% humidity with free access to water and chow (catalog number: SWS9102). Mice have randomly divided into 3 groups: (i) sham controls; (ii) UIRI or UUO mice treated with vehicle; (iii) UIRI or UUO mice treated with KP1. A renal UIRI model was performed. Briefly, under general anesthesia, mice were made a midline abdominal incision, and the left kidney was clipped for 35 min by a vascular clamp. Mice were kept on the heating block at 37 °C during ischemia. The contralateral right kidney was removed on day 10 after ischemia–reperfusion. Mice were sacrificed 11 days after IRI. Blood and kidneys were collected for analysis. UUO model was established. Briefly, the left ureter of the lower pole of the kidney was obstructed by 3–0 surgical suture. KP1 peptide was dissolved in 0.01 M acetic acid and administrated intravenously via tail vein at concentration of 1 mg/day/kg (0.31 μM/day/kg) body weight for 6 days. For some experiments, ITD-1 (S6713, Selleck) was dissolved in PBS with 0.025% DMSO and 0.1% Tween 80 buffer and injected via tail vein at 0.31 μM/day/kg body weight. All animal studies were approved by the Laboratory Animal Ethics Committee of Nanfang Hospital, Southern Medical University.
Western blot analysis was performed as previously described. The primary antibodies used were as follows: anti-fibronectin (dilution 1:10000; F3648; Sigma), anti-α-SMA (dilution 1:1000; ab7817; Abcam), anti-collagen-1 (dilution 1:1000; BM4017; Boster), anti-p-Smad3 (dilution 1:1000; #9520), anti-p-Smad2 (dilution 1:1000; #3104s), anti-p-ERK (dilution 1:1000; #9101s), anti-p-p38 (dilution 1:1000; #9211s), anti-p-JNK (dilution 1:1000; #9251s), anti-Smad2/3 (dilution 1:1000; #8685s), anti-JNK (dilution 1:1000; #9252), anti-ERK (dilution 1:1000; #4695), anti-p38 (dilution 1:1000; #8690; Cell Signaling Technology), anti-Klotho (dilution 1:1000; AF1819; R&D System), anti-TβR2 (dilution 1:1000; sc-7791; Santa Cruz), anti-TGF-β1 (dilution 1:1000; ab92486; Abcam), anti-GAPDH (dilution 1:5000; LK9002L; Sungene, Tianjin), anti-FITC (dilution 1:1000; PA1-26793; Invitrogen), anti-F4/80 (dilution 1:1000; 14-4801-82, eBioscience). The integration of all blots images was performed on Adobe Photoshop CS6. Graphpad Prism 8 was used to get statistics figures. Image J (v1.8.0) was used to quantify Western blot results. […]
in vivo. UUO mice were treated with KP1 (1 mg/kg, 0.31 μM/kg) or ITD-1 (0.31 μM/kg). We stern blot analyses (a, b) and quantitative data of p-Smad2 (c), p-Smad3 (d), p-ERK1/2 (e), p-JNK (f) and p-p38 […]
n=6 biologically independent animals. (h-k) Western blot analyses (h) and quantitative data of fibronectin (i), α-SMA (j) and Collagen Ⅰ (k) are shown. P values (from left to right): 0.001, 0.627, […]
independent animals. Data are presented as mean values +/- SEM. Statistical significance was determined by one-way ANOVA followed by Dunnett’s T3 post hoc test.
(1 picture or pasted object on this page, not shown here)

[2] = system: Smad2/3 phosphorylation in NRK-49F cells; assay: TGF-β1-induced Smad2/3 phosphorylation in NRK-49F cells (Western blot); type: cell-based, rat; settings: KP1 10 µg/ml (3 μM) or ITD-1 3 μM 1 h, TGF-β1 2 ng/ml 45 min, individual values, n = 3, P <0.001, 0.008 and <0.001, Fig. 3m
Procedure: as §1, §2

UIRI mice = assay: Blood calcium and phosphorus in UIRI mice; type: in vivo, mouse
Procedure: as §3

[3] = target: T1, TGF-β receptor 2 (TβR2), recombinant (Homo sapiens, UniProt P37173); assay: SPR affinity measurement (Biacore T200); type: binding; settings: 25 °C, 1:1 fit, KP1 0.78–25 μM, KP12 1.56–100 μM, representative of two independent experiments, read-out: ka
T1 construct: purchased Sino Biological Inc., Beijing, China 10358-H03H-B
Procedure: The SPR analyses were performed on a Biacore T200 apparatus (GE Healthcare, Uppsala Sweden) at 25 °C. Recombinant TGF-β receptor 2 protein (43.4 kDa, >95% as determined by SDS-PAGE) (10358-H03H-B; Sino Biological Inc., Beijing, China) diluted at 50 µg/ml in 10 mM acetate pH 4.0, was covalently immobilized on a CM5 sensor chip (GE Healthcare) using amine-coupling chemistry. Samples of KP1 (3.229 kDa, HPLC purity >95%) or KP12 (3.6 kDa, HPLC purity >95%) in PBS at various concentrations were injected at a flow rate of 60 μl/min. The injection time was set to 180 s, the dissociation time was set to 540 s, and 50 mM Gly-HCl (pH = 2.5) was used as the regeneration buffer. Data were fitted to a 1:1 binding model to obtain KD. All results presented were representative of double or triplicated injections in an interleaved manner. Two independent experiments were performed.

T1 sequence (P37173 23-159 limits assumed): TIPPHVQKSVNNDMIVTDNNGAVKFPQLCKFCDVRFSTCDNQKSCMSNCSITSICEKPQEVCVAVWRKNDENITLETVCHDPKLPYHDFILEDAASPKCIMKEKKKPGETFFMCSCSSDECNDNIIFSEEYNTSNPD

| kon [3] [M⁻¹ s⁻¹] | SMILES | p-p38 (quantitative Western blot), KP1 versus ITD-1 [1] | renal collagen I (Western blot) (UUO mice; n = 6, P 0.001, 0.477, 0.001, Supplementary Fig. 5k) | renal fibronectin (Western blot) (UUO mice; n = 6, P 0.001, 0.627, <0.001, Supplementary Fig. 5i) | renal p-ERK1/2 (Western blot) (UUO mice; n = 6, P 0.004, 0.988, 0.002, Supplementary Fig. 5e) | renal α-SMA (Western blot) (UUO mice; n = 6, P 0.006, 0.497, 0.007, Supplementary Fig. 5j) | renal p-Smad3 (Western blot) (UUO mice; n = 6, P <0.001, 0.438, <0.001, Supplementary Fig. 5d) | renal p-JNK (Western blot) (UUO mice; n = 6, P <0.001, 0.758, <0.001, Supplementary Fig. 5f) | renal p-p38 (Western blot) (UUO mice; n = 6, P <0.001, 1.00, 0.001, Supplementary Fig. 5g) | renal p-Smad2 (Western blot) (UUO mice; n = 6, P <0.001, 1.00, <0.001, Supplementary Fig. 5c) | p-Smad3 (quantitative Western blot), KP1 versus ITD-1 [2] | phosphorus (UIRI mice; UIRI mice + KP1, individual animals, n = 6, UIRI vs UIRI/KP1 P=0.220, Supplementary Table 2) | calcium (UIRI mice; UIRI mice + KP1, individual animals, n = 6, UIRI vs UIRI/KP1 P=0.798, Supplementary Table 2) | effect on blood phosphorus and calcium (in words) (UIRI mice; compared to the UIRI group) |
| --- | --- | --- | --- | --- | --- | --- | --- | --- | --- | --- | --- | --- | --- | --- |
|  | CCOC(=O)C1=C(C)NC2=C(C(=O)CC(C)(C)C2)C1c1ccc(-c2ccccc2)cc1 (centres unmarked) [ITD-1] | 2.793 and 1.62 and 1.25 | 6.627 and 4.346 and 7.91 and 8.759 and 4.669 and 8.535 | 9.72 and 9.315 and 3.815 and 3.805 and 3.523 and 5.024 | 11.5729 and 8.005 and 9.67 and 4.8 and 3.482 and 4.512 | 10.3176 and 15.77 and 12.2484 and 11.8776 and 11.4615 and 9.704 | 6.279 and 6.866 and 5.7731 and 6.57 and 6.136 and 7.119 | 4.803 and 6.567 and 5.7 and 7.786 and 5.264 and 7.2 | 5.956 and 6.507 and 4.878 and 4.538 and 5.819 and 6.755 | 18.8987 and 13.9891 and 9.419 and 10.7729 and 8.909 and 13.9004 | 2.756 and 2.347 and 1.188 |  |  |  |
| 408 | CC(C)C[C@H](NC(=O)[C@H](Cc1ccccc1)NC(=O)CNC(=O)[C@H](CC(=O)O)NC(=O)[C@@H]1CCCN1C(=O)[C@H](Cc1ccccc1)NC(=O)[C@@H](NC(=O)CNC(=O)[C@H](CCC(N)=O)NC(=O)[C@@H](N)Cc1ccccc1)[C@@H](C)O)C(=O)N[C@@H](Cc1c[nH]c2ccccc12)C(=O)N[C@@H](C)C(=O)N[C@H](C(=O)NCC(=O)N[C@@H](CO)C(=O)N[C@@H](C)C(=O)N[C@@H](C)C(=O)N[C@@H](Cc1ccc(O)cc1)C(=O)N[C@@H](CCC(N)=O)C(=O)N[C@H](C(=O)N[C@@H](CCC(=O)O)C(=O)NCC(=O)NCC(=O)N[C@@H](Cc1c[nH]c2ccccc12)C(=O)N[C@@H](CCC(N)=O)C(=O)N[C@@H](CCC(N)=O)C(=O)N[C@@H](Cc1c[nH]cn1)C(=O)NCC(=O)N[C@@H](CCCCN)C(=O)NCC(=O)O)[C@@H](C)O)C(C)C [KP1] |  |  |  |  |  |  |  |  |  |  | 4.92 mmol/L and 5.73 mmol/L and 6.63 mmol/L and 4.9 mmol/L and 3.76 mmol/L and 4.04 mmol/L | 2.71 mmol/L and 2.53 mmol/L and 2.54 mmol/L and 2.38 mmol/L and 2.93 mmol/L and 2.46 mmol/L | did not affect blood phosphorus and calcium level compared to the UIRI group |
